The values below come from patent publication US12331040B2 (Karyopharm Therapeutics Inc., priority 2013, dated 2025).

Molecules are shown by their SMILES. Like-named read-outs stand apart in the source and are kept apart here.

Holding throughout (assay): MTT cell proliferation assay
What all share (assay type): cell-based
For orientation: Tetrazolium dyes change colour on reduction, which living cells bring about.

One test concerns 3T3 cells. To be noted: Mus musculus, NIH3T3, approximately 64-72 hours incubation. The procedure, abridged:
(§1)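 5,000-10,000 cells/well, overnight attach; 8 conc., 1 nM–30 μM; MTT ~4 h; formazan solubilized, OD 490 nm; % inhibition = (1−(ODo/OD))×100 vs neg. control; mostly duplicate, mean±SE.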

The next test relates to MS751 cells. The conditions noted are these: Homo sapiens, approximately 64-72 hours incubation. Summed up: as §1
The test system of a further test is Z138 cells. To be noted: Homo sapiens, Z-138, Z138 cells, approximately 64-72 hours incubation. The procedure, abridged:
as §1

Setting [1] is: MS751, MS751 cells, read-out: MTT Assay IC50 MS-751.
[2] abbreviates: MS751, MS751 cells, read-out: MTT Assay IC50, MS-751.
Where [3] appears, read: read-out: MTT Assay IC50, Z-138.

In the case of `Nc1ccc(/C=C/C(=O)NCc2cc3cc(-c4cc(F)c(C(=O)N5CCOCC5)cc4F)cc(Cl)c3o2)cn1` [Compound 547, (E)-3-(6-aminopyridin-3-yl)-N-((7-chloro-5-(2,5-difluoro-4-(morpholine-4-carbonyl)phenyl)benzofuran-2-yl)methyl)acrylamide], the figures for the IC50 with 3T3 cells (read-out: MTT Assay IC50 3T3), with MS751 cells (setting [1]) and in the test with Z138 cells (read-out: MTT Assay IC50 Z-138) were above 10 µM, 0.1 to 5 µM and 0.1 to 5 µM, respectively.

For the molecule `CC1(F)CCN(C(=O)c2ccc(-c3cc(C(F)(F)F)c4oc(CNC(=O)/C=C\c5ccc(N)nc5)cc4c3)nc2)C1` (single isomer, unassigned) [Compound 657, (Z)-3-(6-aminopyridin-3-yl)-N-((5-(5-(3-fluoro-3-methylpyrrolidine-1-carbonyl)pyridin-2-yl)-7-(trifluoromethyl)benzofuran-2-yl)methyl)acrylamide], the IC50 – broadly, the concentration at which inhibition is half-maximal – in the test with 3T3 cells (read-out: MTT Assay IC50, 3T3) is above 10 µM; in the test with MS751 cells (setting [2]), 0.1 to 5 µM; in the test with Z138 cells (setting [3]), 0.1 to 5 µM.

As for `Nc1ccc(/C=C/C(=O)NCc2cc3cc(-c4ccc(C(=O)N5CCC(F)(F)CC5)cc4)cc(-c4cccc(F)c4)c3o2)cn1` [Compound 726, (E)-3-(6-aminopyridin-3-yl)-N-((5-(4-(4,4-difluoropiperidine-1-carbonyl)phenyl)-7-(3-fluorophenyl)benzofuran-2-yl)methyl)acrylamide], the IC50 is 0.1 to 5 µM in the test on 3T3 cells (read-out: MTT Assay IC50, 3T3); below 0.1 µM in the test with MS751 cells (setting [2]); below 0.1 µM in the test with Z138 cells (setting [3]).

Turning to `Nc1ccc(/C=C/C(=O)NCc2cc3cc(-c4ccc(C(=O)N5CCC(Cl)CC5)cc4)cc(C(F)(F)F)c3o2)cn1` [Compound 607, (E)-3-(6-aminopyridin-3-yl)-N-((5-(4-(4-chloropiperidine-1-carbonyl)phenyl)-7-(trifluoromethyl)benzofuran-2-yl)methyl)acrylamide], the IC50 with 3T3 cells (read-out: MTT Assay IC50 3T3) was above 10 µM; in the test with MS751 cells (setting [1]), 0.1 to 5 µM; in the test with Z138 cells (read-out: MTT Assay IC50 Z-138) it was 0.1 to 5 µM.

`Nc1ccc(/C=C/C(=O)NCc2cc3cc(-c4ccc(C(=O)N5CCC(F)CC5)cc4)cc(C(F)(F)F)c3o2)cn1` [Compound 567, (E)-3-(6-aminopyridin-3-yl)-N-((5-(4-(4-fluoropiperidine-1-carbonyl)phenyl)-7-(trifluoromethyl)benzofuran-2-yl)methyl)acrylamide]: the 50% inhibitory concentration (IC50) in the test on 3T3 cells (read-out: MTT Assay IC50 3T3) was above 10 µM; in the test on MS751 cells (setting [1]), 0.1 to 5 µM; in the test on Z138 cells (read-out: MTT Assay IC50 Z-138) it was 0.1 to 5 µM.

Consider `Nc1ccc(/C=C/C(=O)NCc2cc3cc(-c4ccc(C(=O)N5CCNCC5)cc4)cc(C(F)(F)F)c3o2)cn1` [Compound 564, (E)-3-(6-aminopyridin-3-yl)-N-((5-(4-(piperazine-1-carbonyl)phenyl)-7-(trifluoromethyl)benzofuran-2-yl)methyl)acrylamide], for which the results for the IC50 in the test on 3T3 cells (read-out: MTT Assay IC50 3T3), in the test with MS751 cells (setting [1]) and in the test with Z138 cells (read-out: MTT Assay IC50 Z-138) were above 10 µM, below 0.1 µM and below 0.1 µM, respectively.

For the molecule `Nc1ccc(/C=C/C(=O)NCc2cc3cc(-c4ccc(C(=O)NNc5ccccn5)cc4)cc(C(F)(F)F)c3o2)cn1` [Compound 518, (E)-3-(6-aminopyridin-3-yl)-N-((5-(4-(2-(pyridin-2-yl)hydrazinecarbonyl)phenyl)-7-(trifluoromethyl)benzofuran-2-yl)methyl)acrylamide], the IC50 in the test with 3T3 cells (read-out: MTT Assay IC50 3T3) was above 10 µM; in the test on MS751 cells (MS751 cells, read-out: MTT Assay IC50 MS-751), 0.1 to 5 µM; in the test on Z138 cells (read-out: MTT Assay IC50 Z-138), 0.1 to 5 µM.

Turning to `Nc1ccc(/C=C/C(=O)NCc2cc3cc(-c4ccc(Oc5ccc(F)cc5)cc4)cc(-c4ccc(F)cc4)c3o2)cn1` [Compound 701, (E)-3-(6-aminopyridin-3-yl)-N-((5-(4-(4-fluorophenoxy)phenyl)-7-(4-fluorophenyl)benzofuran-2-yl)methyl)acrylamide], the IC50 with 3T3 cells (read-out: MTT Assay IC50, 3T3) is above 10 µM; in the test on MS751 cells (setting [2]), 0.1 to 5 µM; with Z138 cells (setting [3]), 0.1 to 5 µM.

Regarding `N#Cc1cccc(-c2cc(-c3ccc(C(=O)N4CCC(F)(F)CC4)cc3)cc3cc(CNC(=O)/C=C/c4ccc(N)nc4)oc23)c1` [Compound 732, (E)-3-(6-aminopyridin-3-yl)-N-((7-(3-cyanophenyl)-5-(4-(4,4-difluoropiperidine-1-carbonyl)phenyl)benzofuran-2-yl)methyl)acrylamide], the IC50 in the test with 3T3 cells (read-out: MTT Assay IC50, 3T3) is 0.1 to 5 µM; in the test with MS751 cells (setting [2]), below 0.1 µM; with Z138 cells (setting [3]), below 0.1 µM.

For the molecule `Nc1ccc(/C=C/C(=O)NCc2cc3cc(-c4ccc(C(=O)N5CCC(F)(F)CC5)cc4)cc(-c4ccc(C(F)(F)F)cc4)c3o2)cn1` [Compound 733, (E)-3-(6-aminopyridin-3-yl)-N-((5-(4-(4,4-difluoropiperidine-1-carbonyl)phenyl)-7-(4-(trifluoromethyl)phenyl)benzofuran-2-yl)methyl)acrylamide], the IC50 with 3T3 cells (read-out: MTT Assay IC50, 3T3) is above 10 µM; in the test with MS751 cells (setting [2]), 0.1 to 5 µM; with Z138 cells (setting [3]), 0.1 to 5 µM.

With `Nc1ccc(/C=C/C(=O)NCc2cc3cc(-c4ccc(C(=O)N5CC[C@H](F)C5)cn4)cc(C(F)(F)F)c3o2)cn1` [Compound 570, (S,E)-3-(6-aminopyridin-3-yl)-N-((5-(5-(3-fluoropyrrolidine-1-carbonyl)pyridin-2-yl)-7-(trifluoromethyl)benzofuran-2-yl)methyl)acrylamide], the values for the IC50 with 3T3 cells (read-out: MTT Assay IC50 3T3), in the test on MS751 cells (setting [1]) and with Z138 cells (read-out: MTT Assay IC50 Z-138) were above 10 µM, 0.1 to 5 µM and below 0.1 µM, respectively.

For `Nc1ccc(/C=C/C(=O)NCc2cc3cc(-c4ccc(C(=O)N5CC6(C5)CC(F)(F)C6)cn4)cc(C(F)(F)F)c3o2)cn1` [Compound 661, (E)-3-(6-aminopyridin-3-yl)-N-((5-(5-(6,6-difluoro-2-azaspiro[3.3]heptane-2-carbonyl)pyridin-2-yl)-7-(trifluoromethyl)benzofuran-2-yl)methyl)acrylamide], the IC50 with 3T3 cells (read-out: MTT Assay IC50, 3T3) is above 10 µM; in the test with MS751 cells (setting [2]) it was 0.1 to 5 µM; with Z138 cells (setting [3]) it was 0.1 to 5 µM.

Take `CC1(O)CCN(C(=O)c2ccc(-c3cc(C(F)(F)F)c4oc(CNC(=O)/C=C/c5ccc(N)nc5)cc4c3)nc2)C1` (stereo not drawn) [Compound 627, (E)-3-(6-aminopyridin-3-yl)-N-((5-(5-(3-hydroxy-3-methylpyrrolidine-1-carbonyl)pyridin-2-yl)-7-(trifluoromethyl)benzofuran-2-yl)methyl)acrylamide]: the IC50 was above 10 µM with 3T3 cells (read-out: MTT Assay IC50 3T3), below 0.1 µM in the test on MS751 cells (setting [1]) and below 0.1 µM in the test with Z138 cells (read-out: MTT Assay IC50 Z-138).

Consider `CO[C@@H]1CN(C(=O)c2ccc(-c3cc(C(F)(F)F)c4oc(CNC(=O)/C=C/c5ccc(N)nc5)cc4c3)nc2)C[C@H]1F` [Compound 628, (E)-3-(6-aminopyridin-3-yl)-N-((5-(5-(3-fluoro-4-methoxypyrrolidine-1-carbonyl)pyridin-2-yl)-7-(trifluoromethyl)benzofuran-2-yl)methyl)acrylamide], for which the IC50 in the test on 3T3 cells (read-out: MTT Assay IC50 3T3) is above 10 µM; in the test on MS751 cells (setting [1]), 0.1 to 5 µM; with Z138 cells (read-out: MTT Assay IC50 Z-138) it was 0.1 to 5 µM.

Consider `Nc1ccc(/C=C/C(=O)NCc2cc3cc(-c4ccc(C(=O)N5CCC(F)(F)CC5)cn4)cc(-c4ccncc4)c3o2)cn1` [Compound 666, (E)-3-(6-aminopyridin-3-yl)-N-((5-(5-(4,4-difluoropiperidine-1-carbonyl)pyridin-2-yl)-7-(pyridin-4-yl)benzofuran-2-yl)methyl)acrylamide], for which the IC50 with 3T3 cells (read-out: MTT Assay IC50, 3T3) was 0.1 to 5 µM; in the test with MS751 cells (setting [2]), below 0.1 µM; with Z138 cells (setting [3]) it was below 0.1 µM.

For `Nc1ccc(/C=C/C(=O)NCCc2cc3cc(-c4ccc(C(=O)N5CCC(F)(F)CC5)cc4)cc(C(F)(F)F)c3o2)cn1` [Compound 691, (E)-3-(6-aminopyridin-3-yl)-N-(2-(5-(4-(4,4-difluoropiperidine-1-carbonyl)phenyl)-7-(trifluoromethyl)benzofuran-2-yl)ethyl)acrylamide], the IC50 in the test on 3T3 cells (read-out: MTT Assay IC50, 3T3) is 0.1 to 5 µM; with MS751 cells (setting [2]), 0.1 to 5 µM; in the test with Z138 cells (setting [3]), below 0.1 µM.

Take `Nc1ccc(/C=C/C(=O)NCc2cc3cc(-c4ccc(C(=O)N5CCOCC5)cc4)cc(Cl)c3o2)cc1` [Compound 550, (E)-3-(4-Aminophenyl)-N-((7-chloro-5-(4-(morpholine-4-carbonyl)phenyl)benzofuran-2-yl)methyl)acrylamide]: the IC50 with 3T3 cells (read-out: MTT Assay IC50 3T3), in the test on MS751 cells (setting [1]) and in the test with Z138 cells (read-out: MTT Assay IC50 Z-138) was above 10 µM in each case.

Regarding `CN(C)c1ccc(/C=C/C(=O)NCc2cc3cc(-c4ccc(C(=O)N5CCOCC5)cc4)cc(Cl)c3o2)cn1` [Compound 551, (E)-N-((7-Chloro-5-(4-(morpholine-4-carbonyl)phenyl)benzofuran-2-yl)methyl)-3-(6-(dimethylamino)pyridin-3-yl)acrylamide], the IC50 with 3T3 cells (read-out: MTT Assay IC50 3T3), in the test with MS751 cells (setting [1]) and with Z138 cells (read-out: MTT Assay IC50 Z-138) was above 10 µM each time.

Regarding `C[C@H]1COCCN1C(=O)c1ccc(-c2cc(Cl)c3oc(CNC(=O)/C=C/c4ccc(N)nc4)cc3c2)cc1` [Compound 515, (S,E)-3-(6-aminopyridin-3-yl)-N-((7-chloro-5-(4-(3-methylmorpholine-4-carbonyl)phenyl)benzofuran-2-yl)methyl)acrylamide], the IC50 in the test on 3T3 cells (read-out: MTT Assay IC50 3T3) is above 10 µM; with MS751 cells (setting [1]) it was 0.1 to 5 µM; in the test on Z138 cells (read-out: MTT Assay IC50 Z-138), 0.1 to 5 µM.

`Nc1ccc(/C=C/C(=O)NCc2cc3cc(-c4ccc(C(=O)N5CC6(CCO6)C5)cn4)cc(C(F)(F)F)c3o2)cn1` [Compound 634, (E)-N-((5-(5-(1-oxa-6-azaspiro[3.3]heptane-6-carbonyl)pyridin-2-yl)-7-(trifluoromethyl)benzofuran-2-yl)methyl)-3-(6-aminopyridin-3-yl)acrylamide]: the IC50 in the test with 3T3 cells (read-out: MTT Assay IC50 3T3) was above 10 µM; in the test on MS751 cells (setting [1]) it was 0.1 to 5 µM; with Z138 cells (read-out: MTT Assay IC50 Z-138), 0.1 to 5 µM.
